In US8367727B2, “Method of using abscisic acid to treat diseases and disorders” (priority 2006, dated 2013):

How the values were obtained:
[1] = molecular target: T1, PPAR γ (Mus musculus, UniProt P37238); assay: PPAR γ transactivation (luciferase reporter) in transfected 3T3-L1 pre-adipocytes; format: cell-based
T1 construct: expressed in transfected cells; host or cells: 3T3-L1 pre-adipocytes (ATCC)
T1 sequence (P37238 1-505): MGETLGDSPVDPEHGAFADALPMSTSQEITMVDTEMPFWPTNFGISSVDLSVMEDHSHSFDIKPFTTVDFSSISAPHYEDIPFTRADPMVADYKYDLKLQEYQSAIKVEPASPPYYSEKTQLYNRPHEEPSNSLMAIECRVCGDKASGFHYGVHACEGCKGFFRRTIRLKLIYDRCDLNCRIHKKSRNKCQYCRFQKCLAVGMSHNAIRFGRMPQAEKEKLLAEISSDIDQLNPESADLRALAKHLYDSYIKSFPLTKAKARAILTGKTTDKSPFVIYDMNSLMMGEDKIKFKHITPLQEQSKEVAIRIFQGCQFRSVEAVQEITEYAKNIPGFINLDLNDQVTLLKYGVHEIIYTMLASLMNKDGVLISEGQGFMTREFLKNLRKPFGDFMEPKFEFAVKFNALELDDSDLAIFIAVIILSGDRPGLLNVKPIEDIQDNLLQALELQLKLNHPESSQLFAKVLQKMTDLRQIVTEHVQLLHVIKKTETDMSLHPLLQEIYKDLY
Procedure: Transformation plasmid DNA was performed using One Shot TOP10 (Invitrogen, Carlsbad, Calif.). Briefly, […] of the ligation reaction were added to a thawed 50 μl vial of One Shot® cells for each reaction. The vials were then set on ice for 30 minutes, followed by 30 seconds incubation in a 42° C. water bath. Afterwards, 250 μl of pre-warmed S.O.C medium was added to each vial. Vials were then secured on their sides in a microcentrifuge rack and were placed in a Gyromax 727 orbital shaking incubator (Amerex Instruments, Lafayette, Calif.) and incubated at 37° C. at 225 rpm. After 1 hour incubation, 100 μl of each transformation vial was spread on separate, labeled LB agar plates (Sigma-Aldrich, Milwaukee, Wis.), inverted, and incubated at 37° C. overnight. Colonies were selected and isolated using Plasmid Maxi Kit (Qiagen, Valencia, Calif.) according to manufacturer's instructions. After isolation, the plasmids were transfected into 3T3-L1 pre-adipocytes (American Type Culture Collection, Manassas, Va.) using the Targefect-BAC transfection kit. (Targeting Systems, Santee, Calif.). Briefly, 3T3-L1 cells were cultured in complete DMEM high glucose media (Invitrogen) at 37° C. for 2 days until confluence. After digestion with 2 ml trypsin (Mediatech, Herndon, Va.), the cells were resuspended in 6 ml high glucose DMEM (Mediatech) and then aliquoted into a 24 well plate. […] On the day of the reading, the cells were washed with 500 μl PBS and lysed with 100 μl lysis reagent (Promega, Madison, Wis.). After 15 minutes, lysed cells were collected and luciferase activity for each concentration was calculated using the Dual-Luciferase reporter assay system (Promega) and TD-20/20 Single-Tube Luminometer (Turner Biosystems, Sunnyvale, Calif.) according to manufacturers' instructions. Relative luciferase activity (RLA) was calculated as a ratio of the chemiluminescence 10 seconds after the Luciferase Assay Reagent II (Promega) was added over the chemiluminescence 10 seconds after the Stop&Glo Reagent (Promega). […]

[2] = system: influenza virus antigens; assay: Antigen-specific T cell response after immunization with inactivated influenza virus vaccine; format: cell-based; details: ABA-fed mice (controls 5)
[3] = system: MCP-1, PPAR γ, CD36; assay: Real-time qRT-PCR of stromal-vascular cells (SVCs), adipocytes and liver, db/db mice; format: in vivo
Source text: Complementary DNA (cDNA) concentrations for genes of interest were examined by real-time quantitative PCR using an iCycler IQ System and the iQ SYBR green supermix (BioRad). A standard curve was generated for each gene using 10-fold dilutions of purified amplicons starting at 5 pg of cDNA and used later to calculate the starting amount of target cDNA in the unknown samples. SYBR green I is a general double-stranded DNA intercalating dye and may therefore detect nonspecific products and primer/dimers in addition to the amplicon of interest. In order to determine the number of products synthesized during the real-time PCR, a melting curve analysis was performed on each product. Real-time PCR was used to measure the starting amount of nucleic acid of each unknown sample of cDNA on the same 96-well plate. Results are presented as starting quantity of target cDNA (picograms) per microgram of total RNA.

[4] = system: db/db mice; assay: Fasting glucose, plasma MCP-1, plasma and liver triglycerides, hepatic steatosis, body weight in db/db mice (Example 9); format: in vivo
Procedure: Hepatic Steatosis, plasma MCP-1 and liver triglyceride content Liver specimens were excised and immediately fixed in 10% phosphate buffered neutral formalin, embedded in paraffin, cut at thicknesses of 5 microns and stained with hematoxylin and eosin (H&E) for histological examination. For hepatic triglyceride assessment, livers fragments (50-100 mg) were extracted for 16 hours at 4° C. with 4 ml CHCl/methanol (2:1, vol/vol). Two milliliters of 0.6% NaCl were then added to the extract, and the mixture was centrifuged at 2,000×g for 20 minutes. Lipids were isolated by nitrogen evaporation, dissolved in 100 μl isopropanol, and quantified with a triglyceride assay kit (Stanbio). The Triglyceride Assay Kit (Sigma) and Ready-set-go MCP-1 ELISA (ebioscience) were used to quantify plasma TGs and MCP-1, respectively, according to manufacturer's instructions.

[5] = db/db mice, 100 mg/kg diet, 36 days, vs control high-fat diet

## CC1=CC(=O)CC(C)(C)C1(O)/C=C/C(C)=C\C(=O)O (racemic) [ABA, abscisic acid]
[1]; 50 μM ABA
  PPAR γ activity at 50 μM versus 10 μM: No additional increase in PPAR γ activity
[1]; in vitro, 3T3-L1
  potency relative to rosiglitazone (times less potent): 10 fold
[1]; racemic ABA 1, 2.5, 5, 10, 50 μM, 24 hours
  ABA concentration at which relative luciferase activity begins to be significantly increased: 10 µM
[2]
  production of interleukin-2 (IL-2): 31.67 picograms IL-2/ml of cell supernatant
[3]; P=0.05
  MCP-1 mRNA in the adipocyte fraction: significant reduction
[3]; SVCs and adipocytes
  CD36 expression: only significantly elevated in SVCs
  PPAR γ mRNA expression: higher in both SVCs and adipocytes
[3]; SVCs or adipocytes
  mRNA expression of MIP-1α or TLR-4: did not see significant differences
[3]; db/db mice, 100 mg/kg diet, 36 days
  decrease of MCP-1 mRNA in SVCs: ~15 fold
[4]; ABA-fed db/db mice
  MCP-1 protein concentrations in plasma: significantly decreased
  decrease in plasma MCP-1: 4 fold
  hepatic steatosis, liver histology: less severe
[4]; [5]
  fasting blood glucose (FBG): significantly lower
  plasma TGs concentrations: significantly lower
[4]; db/db mice, throughout the experiment
  food intake or body weights: did not alter food intake or body weights
[4]; vs control diet
  amount of liver triglycerides: significantly lower
